From patent publication US8754054B2, “Antibacterial compounds, methods of making them, and uses thereof” (Albany Molecular Research, Inc., priority 2010, dated 2014)
In brackets after ≈: the same amount, converted by molar mass.

Tests used:
S. pneumoniae 975 = test: Antibacterial activity in vitro, NCCLS dilution method (Table 10); assay type: cell-based; settings: S. pneumoniae 975, Gram +, PSSP
Excerpt: (§1) NCCLS standards for antimicrobial susceptibility testing using the dilution method were followed. See: Performance Standards for Antimicrobial Susceptibility Testing; Fourteenth Informational Supplement. NCCLS Document M100-S14 (ISBN 1-56238-516-X), 2004. NCCLS, 940 West Valley Road, Suite 1400, Wayne, Pa. 19087-1898 USA, 2004; Methods for Dilution Antimicrobial Susceptibility Tests for Bacteria that Grow Aerobically; Approved Standard—Sixth Edition. NCCLS document M7-A6 (IBSBN 1-56238-486-4), NCCLS, 940 West Valley Road, Suite 1400, Wayne, Pa. 19087-1898 USA, 2003, which are hereby incorporated by reference in their entirety.

S. pyogenes 723 = test: as above; assay type: cell-based; settings: S. pyogenes 723, Gram +
Excerpt: as §1

[1] = test system: P. aeruginosa (ATCC 27853); test: as above; assay type: cell-based; settings: Gram −
Excerpt: as §1

K. pneumoniae 2239 = test: as above; assay type: cell-based; settings: K. pneumoniae 2239, Gram −
Excerpt: as §1

E. faecalis 846 = test: as above; assay type: cell-based; settings: E. faecalis 846, Gram +, VRE
Excerpt: as §1

S. aureus 2012 = test: as above; assay type: cell-based; settings: S. aureus 2012, Gram +, VISA
Excerpt: as §1

S. agalactiae 2033 = test: as above; assay type: cell-based; settings: S. agalactiae 2033, Gram +
Excerpt: as §1

S. pneumoniae 376 = test: as above; assay type: cell-based; settings: S. pneumoniae 376, Gram +, Quin-R
Excerpt: as §1

S. aureus (ATCC 29213) = test: as above; assay type: cell-based; settings: Gram +, MSSA
Excerpt: as §1

S. pneumoniae 933 = test: as above; assay type: cell-based; settings: S. pneumoniae 933, Gram +, MDR
Excerpt: as §1

M. catarrhalis 557 = test: as above; assay type: cell-based; settings: M. catarrhalis 557, Gram −
Excerpt: as §1

E. coli 2269 = test: as above; assay type: cell-based; settings: E. coli 2269, Gram −, ESBL-producer
Excerpt: as §1

S. aureus 1725 = test: as above; assay type: cell-based; settings: S. aureus 1725, Gram +, LRSA
Excerpt: as §1

[2] = test system: H. parainfluenzae 2319 (ATCC 7901); test: as above; assay type: cell-based; settings: Gram −
Excerpt: as §1

S. aureus 2144 = test: as above; assay type: cell-based; settings: S. aureus 2144, Gram +, CA, USA 300 Strain
Excerpt: as §1

S. saprophyticus 495 = test: as above; assay type: cell-based; settings: S. saprophyticus 495, Gram +
Excerpt: as §1

H. influenzae 1742 = test: as above; assay type: cell-based; settings: H. influenzae 1742, Gram −, ampR
Excerpt: as §1

S. epidermidis 1597 = test: as above; assay type: cell-based; settings: S. epidermidis 1597, Gram +, MSSE
Excerpt: as §1

S. aureus 1651 = test: as above; assay type: cell-based; settings: S. aureus 1651, Gram +, LRSA
Excerpt: as §1

S. marcescens 1635 = test: as above; assay type: cell-based; settings: S. marcescens 1635, Gram −
Excerpt: as §1

S. aureus (ATCC 43300) = test: as above; assay type: cell-based; settings: Gram +, MRSA
Excerpt: as §1

S. aureus (ATCC 6538) = test: as above; assay type: cell-based; settings: Gram +, MSSA
Excerpt: as §1

S. aureus 1137 = test: as above; assay type: cell-based; settings: S. aureus 1137, Gram +, MRSA
Excerpt: as §1

E. coli 102 (ATCC 25922) = test: as above; assay type: cell-based; settings: Gram −, QC strain
Excerpt: as §1

S. epidermidis 1452 = test: as above; assay type: cell-based; settings: S. epidermidis 1452, Gram +, MRSE
Excerpt: as §1

K. pneumoniae 2262 = test: as above; assay type: cell-based; settings: K. pneumoniae 2262, Gram −, ampC, MDR
Excerpt: as §1

S. aureus 2018 = test: as above; assay type: cell-based; settings: S. aureus 2018, Gram +, VISA
Excerpt: as §1

S. pneumoniae 940 = test: as above; assay type: cell-based; settings: S. pneumoniae 940, Gram +, PRSP
Excerpt: as §1

E. faecium 700221 = test: as above; assay type: cell-based; settings: E. faecium 700221, Gram +, VRE
Excerpt: as §1

MRSA 43300 = test: Antibacterial activity, NCCLS dilution method (Table 9); assay type: cell-based, S. aureus; settings: Staphylococcus aureus, MRSA, MRSA 43300; dilution method; labels marked a tested as a mixture of diastereomers; read-out: MRSA 43300 MIC
Procedure, shortened: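 MIC determined by dilution susceptibility testing following NCCLS standards M7-A6 and M100-S14 for aerobically growing bacteria.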

Row | SMILES | antibacterial activity (dilution susceptibility test) (S. pneumoniae 975) | antibacterial activity (dilution susceptibility test) (S. pyogenes 723) | antibacterial activity (dilution susceptibility test) [1] | antibacterial activity (dilution susceptibility test) (K. pneumoniae 2239) | antibacterial activity (dilution susceptibility test) (S. aureus 2012) | antibacterial activity (dilution susceptibility test) (S. pneumoniae 376) | antibacterial activity (dilution susceptibility test) (S. aureus (ATCC 29213)) | antibacterial activity (dilution susceptibility test) (M. catarrhalis 557) | antibacterial activity (dilution susceptibility test) (E. coli 2269) | antibacterial activity (dilution susceptibility test) (S. aureus 1725) | antibacterial activity (dilution susceptibility test) [2] | antibacterial activity (dilution susceptibility test) (H. influenzae 1742) | antibacterial activity (dilution susceptibility test) (S. marcescens 1635) | antibacterial activity (dilution susceptibility test) (S. aureus (ATCC 43300)) | antibacterial activity (dilution susceptibility test) (S. aureus (ATCC 6538)) | antibacterial activity (dilution susceptibility test) (S. aureus 1137) | antibacterial activity (dilution susceptibility test) (E. coli 102 (ATCC 25922)) | antibacterial activity (dilution susceptibility test) (K. pneumoniae 2262) | antibacterial activity (dilution susceptibility test) (S. pneumoniae 940) | antibacterial activity (dilution susceptibility test) (E. faecium 700221) | other results
1 | COC(=O)c1c(C)cc2c(c1O)[C@]1(O)C(=O)c3cc4c(c(O)c3C(=O)[C@]1(OC)[C@H](O)C2)C(=O)C=C(N[C@H]1O[C@@H](C)[C@H](OC)[C@@H](O)[C@H]1OC)C4=O [Cmpd 12] | ≦0.06 | ≦0.06 | 32 | 64 | ≦0.06 | ≦0.06 | ≦0.06 | 0.12 | 32 | ≦0.06 | 8 | 4 | 64 | 0.008 | 0.008 | ≦0.06 | 32 | 64 | ≦0.06 | 0.06 | antibacterial activity (dilution susceptibility test) (E. faecalis 846): ≦0.06; antibacterial activity (dilution susceptibility test) (S. agalactiae 2033): ≦0.06; antibacterial activity (dilution susceptibility test) (S. pneumoniae 933): ≦0.06; antibacterial activity (dilution susceptibility test) (S. aureus 2144): ≦0.06; antibacterial activity (dilution susceptibility test) (S. saprophyticus 495): ≦0.06; antibacterial activity (dilution susceptibility test) (S. epidermidis 1597): ≦0.06; antibacterial activity (dilution susceptibility test) (S. aureus 1651): ≦0.06; antibacterial activity (dilution susceptibility test) (S. epidermidis 1452): ≦0.06; antibacterial activity (dilution susceptibility test) (S. aureus 2018): ≦0.06
2 | CC(=O)NC[C@H]1CN(c2ccc(N3CCOCC3)c(F)c2)C(=O)O1 [Linezolid] | 1 |  | >64 | >64 | 1 | 1 | 4 | 8 | >64 | 4 | 16 | 8 | >64 | 1 | 0.5 | 4 | >64 | >64 | 0.5 | 1 | 
3 | C[C@@H](O)[C@H]1C(=O)N2C(C(=O)O)=C(S[C@@H]3CN[C@H](C(=O)N(C)C)C3)[C@H](C)[C@H]12 [Meropenem] | 0.015 |  |  | 0.06 | >4 | 0.015 | 0.12 | ≦0.04 | 0.03 | 0.25 | 0.03 | 0.06 | 0.12 |  |  | >4 | 0.03 | >4 | 1 |  | 
4 | CN[C@H](CC(C)C)C(=O)N[C@H]1C(=O)N[C@@H](CC(N)=O)C(=O)N[C@H]2C(=O)N[C@H]3C(=O)N[C@H](C(=O)N[C@H](C(=O)O)c4cc(O)cc(O)c4-c4cc3ccc4O)[C@H](O)c3ccc(c(Cl)c3)Oc3cc2cc(c3O[C@@H]2O[C@H](CO)[C@@H](O)[C@H](O)[C@H]2O[C@H]2C[C@](C)(N)[C@H](O)[C@H](C)O2)Oc2ccc(cc2Cl)[C@H]1O [Vancomycin] | 0.5 | 0.5 | >64 | >64 | 8 | 0.5 | 1 | >64 | >64 | 1 | 64 | >64 | >64 | 2 | 0.5 | 1 | >64 | >64 | 0.25 | >64 | antibacterial activity (dilution susceptibility test) (E. faecalis 846): >64; antibacterial activity (dilution susceptibility test) (S. agalactiae 2033): 0.5; antibacterial activity (dilution susceptibility test) (S. pneumoniae 933): 0.5; antibacterial activity (dilution susceptibility test) (S. aureus 2144): 1; antibacterial activity (dilution susceptibility test) (S. saprophyticus 495): 1; antibacterial activity (dilution susceptibility test) (S. epidermidis 1597): 2; antibacterial activity (dilution susceptibility test) (S. aureus 1651): 1; antibacterial activity (dilution susceptibility test) (S. epidermidis 1452): 2; antibacterial activity (dilution susceptibility test) (S. aureus 2018): 8
5 | CO[C@@H]1[C@@H](O)[C@@H](OC)C(NC2=CC(=O)c3c(cc4c(c3O)C(=O)[C@]3(OC)[C@H](O)Cc5cc(C)c(C(=O)NCc6ccc(Cl)cc6)c(O)c5[C@]3(O)C4=O)C2=O)O[C@H]1C (mixture of isomers) [Example 27, (6R,6aS,14aR)—N-(4-Chlorobenzyl)-1,6,8,14a-tetrahydroxy-11-((3R,4R,5R,6S)-4-hydroxy-3,5-dimethoxy-6-methyltetrahydro-2H-pyran-2-ylamino)-6a-methoxy-3-methyl-7,9,12,14-tetraoxo-5,6,6a,7,9,12,14,14a-octahydrobenzo[a]tetracene-2-carboxamide] |  |  |  |  |  |  |  |  |  |  |  |  |  |  |  |  |  |  |  |  | MIC (MRSA 43300): 8 µg/mL (≈ 9.91 µM)
6 | COC(=O)c1c(C)cc2c(c1O)[C@]1(O)C(=O)c3cc4c(c(O)c3C(=O)[C@]1(OC)[C@H](O)C2)C(=O)C=C(N[C@H]1O[C@@H](C)[C@H](OC)[C@@H](O)[C@H]1OC)C4(O)c1ccc(F)cc1 (single isomer, unassigned) [Example 58] |  |  |  |  |  |  |  |  |  |  |  |  |  |  |  |  |  |  |  |  | MIC (MRSA 43300): 8 to 16 µg/mL (≈ 10.1 to 20.2 µM)
